Like-named read-outs stand apart in the source and are kept apart here.
Legend:
[1] = test system: A549 (Lung Adenocarcinoma); test: Cell viability analysis, lung cancer A549; assay type: cell-based, human; details: Homo sapiens, A549, 72 h
[2] = test system: BCC (basal cell carcinoma); test: Cell viability analysis, skin cancer BCC; assay type: cell-based, human; details: Homo sapiens, 72 h, read-out: The results of antibiotic drug inhibiting cancer cell lines (cell viability analysis), BCC
[3] = test system: A375 (Amelanotic Melanoma); test: Cell viability analysis, skin cancer A375; assay type: cell-based, human; details: Homo sapiens, A-375, 72 h
[4] = test system: MCF7 (Mammary Gland, Adenocarcinoma); test: Cell viability analysis, breast cancer MCF7; assay type: cell-based, human; details: Homo sapiens, MCF7, 72 h
[5] = test system: C-33A (Cervical carcinoma); test: Cell viability analysis, cervical cancer C-33A; assay type: cell-based, human; details: Homo sapiens, C-33-A, 72 h, read-out: The results of antibiotic drug inhibiting cancer cell lines (cell viability analysis), C-33A
AsPC-1 = test: Cell viability analysis, pancreatic cancer AsPC-1; assay type: cell-based, human; details: Homo sapiens, ASPC1, 72 h, read-out: The results of antibiotic drug inhibiting cancer cell lines (cell viability analysis), AsPC-1
TOV-21G = test: Cell viability analysis, ovarian cancer TOV-21G; assay type: cell-based, human; details: Homo sapiens, TOV21G, 72 h, read-out: The results of antibiotic drug inhibiting cancer cell lines (cell viability analysis), TOV-21G
[6] = test system: SAS (Tongue squamous cell carcinoma); test: Cell viability analysis, tongue cancer SAS; assay type: cell-based, human; details: Homo sapiens, 72 h, read-out: The results of antibiotic drug inhibiting cancer cell lines (cell viability analysis), SAS
[7] = test system: HI650 (Lung Adenocarcinoma); test: Cell viability analysis, lung cancer HI650; assay type: cell-based, human; details: Homo sapiens, NCI-H1650, 72 h
[8] = test system: AGS (Gastric Adenocarcinoma); test: Cell viability analysis, gastric cancer AGS; assay type: cell-based, human; details: Homo sapiens, 72 h
[9] = test system: HeLa (Cervix Adenocarcinoma); test: Cell viability analysis, cervical cancer HeLa; assay type: cell-based, human; details: Homo sapiens, HeLa, 72 h
[10] = test system: HepG2 (Hepatocellular Carcinoma); test: Cell viability analysis, hepatic cancer HepG2; assay type: cell-based, human; details: Homo sapiens, HepG2, 72 h
T24 = test: Cell viability analysis, bladder cancer T24; assay type: cell-based, human; details: Homo sapiens, T-24, 72 h, read-out: The results of antibiotic drug inhibiting cancer cell lines (cell viability analysis), T24
cancer cell lines = test: Cell viability analysis (WST-1) on cancer cell lines; assay type: cell-based, human; details: drug 10 μM, 72 hours, WST-1; Table 3
[11] = test system: MDA-MB-231 (Mammary Gland, Adenocarcinoma); test: Cell viability analysis, breast cancer MDA-MB-231; assay type: cell-based, human; details: Homo sapiens, MDA-MB-231, 72 h, read-out: The results of antibiotic drug inhibiting cancer cell lines (cell viability analysis), MDA-MB231
[12] = test system: HCT116 (p53+) (Colorectal Carcinoma)
[13] = test system: LoVo (Colorectal Adenocarcinoma); test: Cell viability analysis, colon cancer LoVo; assay type: cell-based, human; details: Homo sapiens, LoVo, 72 h
[14] = test system: MKN-45 (Gastric Adenocarcinoma); test: Cell viability analysis, gastric cancer MKN-45; assay type: cell-based, human; details: Homo sapiens, MKN-45, 72 h
NIH: OVCAR-3 = test: Cell viability analysis, ovarian cancer NIH: OVCAR-3; assay type: cell-based, human; details: Homo sapiens, OVCAR-3, 72 h, read-out: The results of antibiotic drug inhibiting cancer cell lines (cell viability analysis), NIH-OVCAR-3
[15] = test system: HL-60 (Acute Promyelocytic Leukemia); test: Cell viability analysis, leukemia HL-60; assay type: cell-based, human; details: Homo sapiens, HL-60, 72 h, read-out: cell viability (survival rate), HL-60, drug 10 μM, 72 hours, WST-1, OD450 nm
U-2OS = test: Cell viability analysis, osteosarcoma U-2OS; assay type: cell-based, human; details: Homo sapiens, U2OS, 72 h, read-out: The results of antibiotic drug inhibiting cancer cell lines (cell viability analysis), U2OS
[16] = test system: 786-O (Renal adenocarcinoma); test: Cell viability analysis, renal cancer 786-O; assay type: cell-based, human; details: Homo sapiens, 786-0, 72 h, read-out: The results of antibiotic drug inhibiting cancer cell lines (cell viability analysis), 786-O
[17] = test system: Hep3B (hepatocellular carcinoma); test: Cell viability analysis, hepatic cancer Hep3B; assay type: cell-based, human; details: Homo sapiens, Hep3B, 72 h, read-out: The results of antibiotic drug inhibiting cancer cell lines (cell viability analysis), Hep3B
[18] = test system: TSGH-8301 (Urinary Bladder Carcinoma); test: Cell viability analysis, bladder cancer TSGH-8301; assay type: cell-based, human; details: Homo sapiens, 72 h
[19] = read-out: The results of antibiotic drug inhibiting cancer cell lines (cell viability analysis), A549, A549, repeated experiment
[20] = read-out: cell viability (survival rate), A549, drug 10 μM, 72 hours, WST-1, OD450 nm
[21] = read-out: The results of antibiotic drug inhibiting cancer cell lines (cell viability analysis), A375, A375, repeated experiment
[22] = read-out: cell viability (survival rate), A375, drug 10 μM, 72 hours, WST-1, OD450 nm
[23] = read-out: The results of antibiotic drug inhibiting cancer cell lines (cell viability analysis), MCF-7, MCF-7, repeated experiment
[24] = read-out: cell viability (survival rate), MCF7, drug 10 μM, 72 hours, WST-1, OD450 nm
[25] = read-out: The results of antibiotic drug inhibiting cancer cell lines (cell viability analysis), H1650, H1650, repeated experiment
[26] = read-out: cell viability (survival rate), H1650, drug 10 μM, 72 hours, WST-1, OD450 nm
[27] = read-out: The results of antibiotic drug inhibiting cancer cell lines (cell viability analysis), AGS, repeated experiment
[28] = read-out: cell viability (survival rate), AGS, drug 10 μM, 72 hours, WST-1, OD450 nm
[29] = read-out: The results of antibiotic drug inhibiting cancer cell lines (cell viability analysis), HeLa, repeated experiment
[30] = read-out: cell viability (survival rate), HeLa, drug 10 μM, 72 hours, WST-1, OD450 nm
[31] = read-out: The results of antibiotic drug inhibiting cancer cell lines (cell viability analysis), HepG2, HepG2, repeated experiment
[32] = read-out: cell viability (survival rate), HepG2, drug 10 μM, 72 hours, WST-1, OD450 nm
[33] = read-out: The results of antibiotic drug inhibiting cancer cell lines (cell viability analysis), LoVo, repeated experiment
[34] = read-out: cell viability (survival rate), LoVo, drug 10 μM, 72 hours, WST-1, OD450 nm
[35] = read-out: The results of antibiotic drug inhibiting cancer cell lines (cell viability analysis), MKN-45, MKN-45, repeated experiment
[36] = read-out: cell viability (survival rate), MKN-45, drug 10 μM, 72 hours, WST-1, OD450 nm
[37] = read-out: The results of antibiotic drug inhibiting cancer cell lines (cell viability analysis), TSGH-8301, TSGH-8301, repeated experiment
[38] = read-out: cell viability (survival rate), TSGH, drug 10 μM, 72 hours, WST-1, OD450 nm

SMILES	viability at 10 µM [1, 19] [%]	viability at 10 µM [1, 20] [%]	viability at 10 µM [2] [%]	viability at 10 µM [3, 21] [%]	viability at 10 µM [3, 22] [%]	viability at 10 µM [4, 23] [%]	viability at 10 µM [4, 24] [%]	viability at 10 µM [5] [%]	viability at 10 µM (AsPC-1) [%]	viability at 10 µM (TOV-21G) [%]	viability at 10 µM [6] [%]	viability at 10 µM [7, 25] [%]	viability at 10 µM [7, 26] [%]	viability at 10 µM [8, 27] [%]	viability at 10 µM [8, 28] [%]	viability at 10 µM [9, 29] [%]	viability at 10 µM [9, 30] [%]	viability at 10 µM [10, 31] [%]	viability at 10 µM [10, 32] [%]	viability at 10 µM (T24) [%]	also measured
Clc1ccc(COC(Cn2ccnc2)c2ccc(Cl)cc2Cl)c(Cl)c1 (stereo not drawn) [Miconazole nitrate]	97.3	37.3	80.7	100	31.5	95.6	50.7	117	75.5	80.6	69.6	83.1	68.8	114	51.1	95.7	57.6	108	104	77.7	inhibition effect on different cancer cell lines (cancer cell lines): significant inhibition effect; viability at 10 µM [11]: 107%; viability [12]: 122%; viability at 10 µM [13, 33]: 81.3%; viability at 10 µM [13, 34]: 62.1%; viability at 10 µM [14, 35]: 99.8%; viability at 10 µM [14, 36]: 45%; viability at 10 µM (NIH: OVCAR-3): 94.8%; viability at 10 µM [15]: 41.4%; viability at 10 µM (U-2OS): 64.2%; viability at 10 µM [16]: 75.2%; viability at 10 µM [17]: 126%; viability at 10 µM [18, 37]: 102%; viability at 10 µM [18, 38]: 41.8%
Cc1ncc([N+](=O)[O-])n1CCO [Metronidazole (Flagyl), Metronidazole]	97.7	36.5	68.2	74.7	56.4	77.3	43.8	114	83.1	95.8	112	87.2	94.9	113	90.5	75.3	90.7	94.1	105	93.8	inhibition effect on different cancer cell lines (cancer cell lines): significant inhibition effect; viability at 10 µM [11]: 93.3%; viability [12]: 98.9%; viability at 10 µM [13, 33]: 118%; viability at 10 µM [13, 34]: 61.1%; viability at 10 µM [14, 35]: 108%; viability at 10 µM [14, 36]: 57.7%; viability at 10 µM (NIH: OVCAR-3): 110%; viability at 10 µM [15]: 90.8%; viability at 10 µM (U-2OS): 99.6%; viability at 10 µM [16]: 92%; viability at 10 µM [17]: 92.3%; viability at 10 µM [18, 37]: 92.4%; viability at 10 µM [18, 38]: 62%
CC(C)(C)C(=O)OCOP(=O)(COCCn1cnc2c(N)ncnc21)OCOC(=O)C(C)(C)C [Adefovir Dipivoxil (Preveon, Hepsera), Adefovir Dipivoxil]	76.7	47.3	38.9	37.7	81.7	75.5	56.7	68	48.7	77.3	40	54	55.3	78	35.1	77.4	96.6	80.1	95.5	44.8	inhibition effect on different cancer cell lines (cancer cell lines): significant inhibition effect; viability at 10 µM [11]: 71.9%; viability [12]: 55.4%; viability at 10 µM [13, 33]: 58.1%; viability at 10 µM [13, 34]: 62%; viability at 10 µM [14, 35]: 86.6%; viability at 10 µM [14, 36]: 46.1%; viability at 10 µM (NIH: OVCAR-3): 78.8%; viability at 10 µM [15]: 60.4%; viability at 10 µM (U-2OS): 68.5%; viability at 10 µM [16]: 25.9%; viability at 10 µM [17]: 71.5%; viability at 10 µM [18, 37]: 70%; viability at 10 µM [18, 38]: 47%
